This is an account of results in patent US10370378B2, “Treatment of sleep disorders” (Evotec International GmbH, priority 2007, dated 2019).

Data set [1] in a line: Pharmacokinetic profile in non-elderly adults and the elderly (FIG. 16). The note with it: free base. The format is in vivo, human. From the text: FIG. 16 is a chart showing an exemplary pharmacokinetic (PK) profile of the compound of formula (II) (free base) in both the non-elderly adults and the elderly. Mean dose adjusted plasma concentrations of the compound of formula (II) (free base) in non-elderly (open circle) and elderly males (open square) and M1 (active metabolite of the compound of formula (II) (free base)) in non-elderly adults (filled circle) and the elderly (filled square).
As a result, the inventors determined that the same or similar doses of the compound of formula (II), which are effective for non-elderly adults (18-64 years of age), could be effective for the elderly.

The test system of data set [2] is primary insomnia in adult patients. In words: Example 3: placebo-controlled crossover study in primary insomnia, adult patients younger than 65 (PSG, patient reports, DSST, safety). The following applies: for Number of Patients with Any Event / Number of Patients with Headache / Number of Patients with Somnolence: number (percent). In kind it is in vivo, human. As for the experimental part:
A randomized, multicenter, double-blind, placebo-controlled crossover study was conducted to assess the efficacy of the 1.5 mg and 2.5 mg doses of the compound of formula (II) in the treatment of primary insomnia in adult patients. Specifically, one of the objectives of the study was to asses the efficacy of 1.5 mg and 2.5 mg doses on PSG and patient-reported measures of sleep. Also, the study was aimed at assessing the safety of 1.5 mg and 2.5 mg doses.
The study in this Example was performed for two consecutive nights with a 5-12 day washout between each period. The dosing was conducted 30 minutes before lights were turned out for the night via oral administration of a hard gelatine capsule containing the compound of formula (II) (free base) in powder form. PSG was taken for 8 hours from “lights out” on nights 1 and 2 of each treatment period. Centralized scoring of PSG was used. Testing for residual effects using the Digit Symbol Substitution Test (DSST) was performed at least 30 minutes after wake time (9 hours post dose).
The study was conducted using 67 subjects younger than 65 years of age (21 males, 46 females; mean age 45.1 yrs, range 23-64 yrs) with a documented diagnosis of primary insomnia (DSM-IV criteria). These subjects' typical bed time was between 9 pm and 1 am with at least 7 hours in bed. These subjects reported sleep latency of at least 45 minutes and TST of not more than 6.5 hours in a sleep diary for at least 3 of 7 nights.
Mean WASO of the patients was at least 40 minutes and mean TST was 240-420 minutes.

As to `CN(C)Cc1nc(-c2ncn3c2CN(C)C(=O)c2c(Cl)cccc2-3)no1` [compound of formula (II), 7-chloro-3-(5-dimethylaminomethyl-[1,2,4]oxadiazol-3-yl)-5-methyl-4,5-dihydro-imidazo[1,5-a][1,4]benzodiazepine-6-one], the “pharmacokinetic (PK) profile in non-elderly versus elderly” value in data set [1] was “similar”. Moreover, in data set [2] (1.5 mg (n = 71)), the “Number of Patients with Any Event” value is 13 (18.3%), the “Number of Patients with Headache” value was 3 (4.2%) and the “Number of Patients with Somnolence” value was 2 (2.8%). Further, the safety and tolerability entry in data set [2] (1.5 mg and 2.5 mg doses) was “safe and well-tolerated”. In data set [2] (1.5 mg or 2.5 mg), the “patient-reported residual sedation effects compared with placebo” value was “no patient-reported residual sedation effects”. Further, in data set [2] (2.5 mg (n = 71)), the “Number of Patients with Any Event” value was 18 (25.4%), the “Number of Patients with Headache” value was 6 (8.5%) and the “Number of Patients with Somnolence” value is reported as 4 (5.6%). Besides, the “total time awake during each hour after dosing” value in data set [2] (2.5 mg, each hour except hour 7 (p 0.0577)) is “statistically significant reduction”. In data set [2] (1.5 and 2.5 mg), the “REM sleep (sleep architecture)” value is reported as “only a small effect” and the “slow wave sleep (sleep architecture)” value is “no impairment”. In data set [2] (1.5 and 2.5 mg doses), the “patient reported sleep quality” value is given as “marked improvement”. Moreover, in data set [2] (9 hours after dose), the “DSST scores compared with placebo” value is listed as “only slightly lower”.
